{"source": "patent US20100047195A1", "about": "“LIP BALM AND METHOD OF TREATING LIP CONDITIONS” (priority 2007, published 2010)", "origin": "cited, not measured here", "conditions": "oral isotretinoin; estimated"}
{"smiles": "CC1=C(/C=C/C(C)=C/C=C/C(C)=C\\C(=O)O)C(C)(C)CCC1", "note": "[isotretinoin, 13-cis-retinoic acid]", "values": [{"measurement": "patients treated who develop cheilitis (cracking, soreness and other inflammation of the lips)", "value": "over 90%"}]}
